# Results published in patent US20250017949A1, “METHODS AND COMPOSITIONS FOR SUPPRESSING AGING-ASSOCIATED CLONAL HEMATOPOIESIS” (The Jackson Laboratory, priority 2021, published 2025).
# Key:
# control HSCs [1] = experiment: PVA HSC culture with recombinant TNFα, cell number; assay type: cell-based, mouse
# Source text: (§1) FIGS. 6A-6I: Dnmt3a-mutant HSCs maintain self-renewal and generate B lymphoid cells following TNF stimulation. (FIG. 6A) Schematic of experimental design to test response of Mx-Cre control and Dnmt3a^R878H/+ HSCs to recombinant TNFα ex vivo under growth conditions that favor HSC expansion. (FIG. 6B) Normalized frequency of donor-derived cells in PB of recipient mice post-transplant. Significance calculated using mixed-effects model with Fisher's LSD. (FIG. 6C) Representative flow cytometry plots showing B cell and myeloid cell frequencies in donor derived PB at 4 weeks post-transplant. (FIG. 6D) Frequency of myeloid (left) and B cells (right) in donor derived PB at 4 weeks post-transplant. Significance calculated using two-way ANOVA with Sidak's multiple comparison's test. (FIG. 6E) Schematic of experimental design to test TNFα response of Fgd5-Cre^ERT control vs. Fgd5-Cre^ERT Dnmt3a^R878H/+ HSCs, and germline Dnmt3a^+/+ vs. Dnmt3a^+/− HSCs. (FIGS. 6F-6G) Viable cell counts after 7 days of culture. Significance calculated using Brown-Forsythe and Welch ANOVA with Welch's correction. (FIG. 6H) Frequency of donor-derived cells in PB of recipient mice post-transplant. Significance calculated using mixed-effects model with Fisher's LSD. (FIG. 6I) Frequency of myeloid (left) and B cells (right) in donor derived PB at 4 weeks post-transplant. Significance calculated using one-way ANOVA with Fisher's LSD. (FIGS. 6B, 6D, and 6F-6I) Dots represent individual recipient mice, boxes show 25 to 75th percentile, line is median, whiskers show min to max. *P<0.05, **P<0.01, ***P<0.001.
# (§2) To assess the extent to which TNFα directly promotes young Dnmt3a-mutant HSC survival, we added recombinant TNFα to mixed cultures of wild-type and Dnmt3a-mutant HSCs in media that sustains HSC self-renewal (FIG. 6A). […]
# (§3) Two months post-poly(I:C), 25 CD45.2^+ from Dnmt3a^+/+ Mx-Cre or Dnmt3a^fl-R878H/+ Mx-Cre donors (CD45.2+) and 25 CD45.1^+/CD45.2^+ HSCs were sorted into a 96-well plate with Ham's F12 media containing final concentrations of 1× Penicillin-streptomycin-glutamine (Gibco cat. #10378-016), 10 mM HEPES (Gibco cat. #15630080), 1× Insulin-transferrin-selenium-ethanolamine (Gibco cat. #51500-056), 100 ng/mL recombinant murine TPO (Biolegend cat. #593302), 10 ng/mL recombinant murine SCF (StemCell Technologies cat. #78064), and 1 mg/mL polyvinyl alcohol (Sigma cat. #P8136)^19+/−10 ng/mL recombinant murine TNF-α (PeproTech cat. #315-01A) and cultured for seven days at 37° C. and 5% CO2. […] On day 7, half of the wells were stained and analyzed by flow cytometry and half of the wells were harvested, mixed with 1×10^6 CD45.1^+ post-ficoll whole BM cells, and transplanted into young, lethally irradiated CD45.1^+ recipients. […]
# Dnmt3a-mutant HSCs [2] = experiment: PVA HSC culture with recombinant TNFα, cell number; assay type: cell-based, mouse; conditions: recombinant TNFα added to mixed cultures of wild-type and Dnmt3a^R878H HSCs
# Source text: as §1, §2, §3
# control HSCs [3] = experiment: Transplant of TNFα-treated cultured HSCs into recipient mice; assay type: in vivo, mouse
# Source text: as §1
# (§4) To assess the extent to which TNFα directly promotes young Dnmt3a-mutant HSC survival, we added recombinant TNFα to mixed cultures of wild-type and Dnmt3a-mutant HSCs in media that sustains HSC self-renewal (FIG. 6A). […] Post culture, cells were transplanted into recipient mice to assess HSC function. […] Thus, TNFα-driven myeloid regeneration at the expense of HSC self-renewal is disrupted in Dnmt3a^R878H/+ HSCs. Instead, TNFα-treated Dnmt3a^R878H/+ HSCs favor lymphoid regeneration and maintain their self-renewal. To assess this in complementary models, we used tamoxifen-inducible Fgd5-Cre-driven Dnmt3a^R878H/+ mice as well as germline Dnmt3a^+/− mice to isolate HSCs for TNFα stimulation (FIG. 6E). […] Thus, TNFα-induced HSC survival and disrupted myeloid regeneration are broadly relevant to Dnmt3a-mutant clonal hematopoiesis.
# (§5) Two months post-poly(I:C), 25 CD45.2^+ from Dnmt3a^+/+ Mx-Cre or Dnmt3a^fl-R878H/+ Mx-Cre donors (CD45.2+) and 25 CD45.1^+/CD45.2^+ HSCs were sorted into a 96-well plate with Ham's F12 media containing final concentrations of 1× Penicillin-streptomycin-glutamine (Gibco cat. #10378-016), 10 mM HEPES (Gibco cat. #15630080), 1× Insulin-transferrin-selenium-ethanolamine (Gibco cat. #51500-056), 100 ng/mL recombinant murine TPO (Biolegend cat. #593302), 10 ng/mL recombinant murine SCF (StemCell Technologies cat. #78064), and 1 mg/mL polyvinyl alcohol (Sigma cat. #P8136)^19+/−10 ng/mL recombinant murine TNF-α (PeproTech cat. #315-01A) and cultured for seven days at 37° C. and 5% CO2. TNF-α was spiked into the cultures on day 4 and 6. On day 7, half of the wells were stained and analyzed by flow cytometry and half of the wells were harvested, mixed with 1×10^6 CD45.1^+ post-ficoll whole BM cells, and transplanted into young, lethally irradiated CD45.1^+ recipients. PB was tracked monthly for six months post-transplant via flow cytometry.
# Dnmt3a-mutant HSCs [4] = experiment: as above; assay type: in vivo, mouse
# Source text: as §1, §4, §5
# [5] = donor-derived cells in PB post-transplant, FIG. 6B
# [6] = post-transplant, data not shown
substance,measurement,setting,value
TNFα,Number of control cells produced over the culture period,"control HSCs [1]; Mx-Cre control, 10 ng/mL TNF-α, seven days, data not shown",reduced the number of control
same,Viable cell counts of control cells after 7 days of culture,"control HSCs [1]; controls of the Fgd5-Cre and germline Dnmt3a^+/− models, FIGS. 6F-6G",reduced the number of control
same,Wild-type progeny in mixed cultures,control HSCs [1]; recombinant TNFα added to mixed cultures of wild-type and Dnmt3a^R878H HSCs,depletion of wild-type progeny
same,Maintenance of Dnmt3a^R878H HSC progeny in mixed cultures,Dnmt3a-mutant HSCs [2],preferential maintenance of Dnmt3a^R878H HSC progeny
same,Long-term multilineage engraftment of TNFα-treated control HSCs,control HSCs [3]; [5],did not sustain long-term multilineage engraftment
same,"HSC, MPP^Mk/E and MPP^G/M populations in bone marrow from TNFα-treated control HSCs",control HSCs [3]; [6],"trends toward reduced HSC, MPP^Mk/E, and MPP^G/M populations"
same,Dnmt3a^+/− B lymphoid relative to myeloid cell production,"Dnmt3a-mutant HSCs [4]; donor-derived PB at 4 weeks post-transplant, FIG. 6I",transiently increased Dnmt3a^+/− B lymphoid relative to myeloid cell production
same,Dnmt3a^R878H/+ B lymphoid cell production,"Dnmt3a-mutant HSCs [4]; donor-derived PB at 4 weeks post-transplant, FIGS. 6C-6D",transiently increased Dnmt3a^R878H/+ B lymphoid cell production
same,Mature hematopoietic cell production and engraftment of TNFα-treated Dnmt3a^R878H/+ HSCs,Dnmt3a-mutant HSCs [4]; [5],increased production of mature hematopoietic cells in the short term (4 weeks post-transplant) followed by sustained multilineage engraftment
same,"HSC, MPP^Mk/E and MPP^G/M populations in bone marrow from TNFα-treated Dnmt3a^R878H/+ HSCs",Dnmt3a-mutant HSCs [4]; [6],not observed in TNFα-treated Dnmt3a^R878H/+ HSCs
same,Multilineage engraftment of TNFα-treated Dnmt3a^+/− HSCs,"Dnmt3a-mutant HSCs [4]; vs TNFα-treated control HSCs, FIG. 6H",sustained multilineage engraftment at a higher frequency than TNFα-treated control HSCs
